# Measurements as given in patent US11684589B2, “Pharmaceutical compositions for use in the therapy of blepharitis” (NOVALIQ GMBH, priority 2016, dated 2023).
# Columns and labels:
# Assay type in all cases: in vivo, patients
# posterior blepharitis = assay: Assessment of posterior blepharitis severity in observational patient study; settings: for Posterior blepharitis shift table, changes from baseline for both eyes: 7 weeks
# Procedure: (§1) A prospective, uncontrolled, open-label, multi-center observational study was conducted with a total of 72 (53 female, 19 male) patients included, with 1 to 20 patients per site. Two patients were lost for follow-up during the study. Patients to be included had to fulfill following criteria: • Males or females≥18 years of age; • Patients with symptoms as determined by • Tear Film Break-Up Time (TFBUT)≤10 s • Ocular Surface Disease Index≥16 and ≤55 • Schirmer I Test≥2 mm (recorded within 5 min) • Sum of peripheral corneal and conjunctival staining grade≤10 (Oxford) • Altered secretion and expressibility of the meibomian glands. Among those, patients fulfilling the following criteria were not included in the study: • Known hypersensitivity to any of the components of NovaTears®; • Contact lens wear, pregnancy, or breast feeding; • Presence of dry eye disease (DED) caused by any other known underlying systemic disease; • Planned ophthalmologic surgical procedure during the course of the study; • Use of lipid-containing or tear-film stabilizing eye drops/sprays except cyclosporin formulations. Patients selected as described above were administered 1-perfluorohexyloctane (F6H8) eye drops, manufactured under the tradename “NovaTears®” (Novaliq GmbH, Heidelberg, Germany) for a period of 7 weeks. Said formulation consists essentially of 1-perfluorohexyloctane (F6H8), it is water-free and contains no additional preservatives or ingredients. A dose of 3 to 4 droplets (corresponding to 40 μl, 10 μl per drop) per eye and day were administered topically to the eye, with 1 droplet being administered as a single dose. NovaTears® single droplets were administered directly to the surface of the eye into a pocket that was formed by gently pulling down the lower eyelid. Assessment of the eyes treated was performed once before the start of NovaTears® administration (baseline) and once after 7 weeks of treatment (follow-up). Anterior blepharitis involves inflammation of the lid margin anterior to the gray line and is usually concentrated around the eyelashes and follicles. Posterior blepharitis involves inflammation of the posterior lid margin. The severity of anterior and posterior blepharitis was rated separately for each eye by selecting one of the following ratings: “none”, “+”, “++”, “+++” (with “+++” indicating most severe blepharitis anterior or posterior).
# [1] = test system: abnormal lid margin features; assay: Lid margin assessment (abnormal lid margin features) in observational patient study
# Procedure: A prospective, uncontrolled, open-label, multi-center observational study was conducted with a total of 72 (53 female, 19 male) patients included, with 1 to 20 patients per site. Two patients were lost for follow-up during the study. Patients to be included had to fulfill following criteria: • Males or females≥18 years of age; • Patients with symptoms as determined by • Tear Film Break-Up Time (TFBUT)≤10 s • Ocular Surface Disease Index≥16 and ≤55 • Schirmer I Test≥2 mm (recorded within 5 min) • Sum of peripheral corneal and conjunctival staining grade≤10 (Oxford) • Altered secretion and expressibility of the meibomian glands.
# Among those, patients fulfilling the following criteria were not included in the study: • Known hypersensitivity to any of the components of NovaTears®; • Contact lens wear, pregnancy, or breast feeding; • Presence of dry eye disease (DED) caused by any other known underlying systemic disease; • Planned ophthalmologic surgical procedure during the course of the study; • Use of lipid-containing or tear-film stabilizing eye drops/sprays except cyclosporin formulations.
# Patients selected as described above were administered 1-perfluorohexyloctane (F6H8) eye drops, manufactured under the tradename “NovaTears®” (Novaliq GmbH, Heidelberg, Germany) for a period of 7 weeks. Said formulation consists essentially of 1-perfluorohexyloctane (F6H8), it is water-free and contains no additional preservatives or ingredients. A dose of 3 to 4 droplets (corresponding to 40 μl, 10 μl per drop) per eye and day were administered topically to the eye, with 1 droplet being administered as a single dose. NovaTears® single droplets were administered directly to the surface of the eye into a pocket that was formed by gently pulling down the lower eyelid. Assessment of the eyes treated was performed once before the start of NovaTears® administration (baseline) and once after 7 weeks of treatment (follow-up).
# Lid Margin Assessment As a further parameter abnormal lid margin features, such as teleangiectasia, plugging and lid swelling were assessed in the study. Assessment was performed for each eye separately.
# anterior blepharitis = assay: Assessment of anterior blepharitis severity in observational patient study; settings: for Anterior blepharitis shift table, changes from baseline for both eyes: 7 weeks
# Procedure: as §1
# [2] = 7 weeks of treatment, 3 to 4 droplets per eye and day, including patients with scores ++ and +
compound,measurement,setting,value
CCCCCCCCC(F)(F)C(F)(F)C(F)(F)C(F)(F)C(F)(F)C(F)(F)F [1-perfluorohexyloctane],Severity of posterior blepharitis after treatment,posterior blepharitis; [2],decreased for all patients
same,"Posterior blepharitis shift table, changes from baseline for both eyes","posterior blepharitis; baseline 0 (none), follow-up 0 (none)",26 eyes
same,"Posterior blepharitis shift table, changes from baseline for both eyes","posterior blepharitis; baseline 0 (none), follow-up +++",0 eyes
same,"Posterior blepharitis shift table, changes from baseline for both eyes","posterior blepharitis; baseline 0 (none), follow-up ++",0 eyes
same,"Posterior blepharitis shift table, changes from baseline for both eyes","posterior blepharitis; baseline 0 (none), follow-up +",5 eyes
same,"Posterior blepharitis shift table, changes from baseline for both eyes","posterior blepharitis; baseline +++, follow-up 0 (none)",4 eyes
same,"Posterior blepharitis shift table, changes from baseline for both eyes","posterior blepharitis; baseline +++, follow-up +++",0 eyes
same,"Posterior blepharitis shift table, changes from baseline for both eyes","posterior blepharitis; baseline +++, follow-up ++",0 eyes
same,"Posterior blepharitis shift table, changes from baseline for both eyes","posterior blepharitis; baseline +++, follow-up +",2 eyes
same,"Posterior blepharitis shift table, changes from baseline for both eyes","posterior blepharitis; baseline ++, follow-up 0 (none)",10 eyes
same,"Posterior blepharitis shift table, changes from baseline for both eyes","posterior blepharitis; baseline ++, follow-up +++",0 eyes
same,"Posterior blepharitis shift table, changes from baseline for both eyes","posterior blepharitis; baseline ++, follow-up ++",8 eyes
same,"Posterior blepharitis shift table, changes from baseline for both eyes","posterior blepharitis; baseline ++, follow-up +",14 eyes
same,"Posterior blepharitis shift table, changes from baseline for both eyes","posterior blepharitis; baseline +, follow-up 0 (none)",20 eyes
same,"Posterior blepharitis shift table, changes from baseline for both eyes","posterior blepharitis; baseline +, follow-up +++",0 eyes
same,"Posterior blepharitis shift table, changes from baseline for both eyes","posterior blepharitis; baseline +, follow-up ++",3 eyes
same,"Posterior blepharitis shift table, changes from baseline for both eyes","posterior blepharitis; baseline +, follow-up +",30 eyes
same,"Assessment of posterior blepharitis, grade +++","posterior blepharitis; follow-up after 7 weeks of treatment, 122 eyes from 61 patients, baseline 6",0 eyes
same,"Assessment of posterior blepharitis, grade none","posterior blepharitis; follow-up after 7 weeks of treatment, 122 eyes from 61 patients, baseline 31",60 eyes
same,"Assessment of posterior blepharitis, grade ++","posterior blepharitis; follow-up after 7 weeks of treatment, 122 eyes from 61 patients, baseline 32",11 eyes
same,"Assessment of posterior blepharitis, grade +","posterior blepharitis; follow-up after 7 weeks of treatment, 122 eyes from 61 patients, baseline 53",51 eyes
same,Reduction in the severity of posterior blepharitis after treatment,posterior blepharitis; patients with the most severe posterior blepharitis rated +++,most significant reduction
same,"Abnormal lid margin features (teleangiectasia, plugging, lid swelling) after treatment",[1]; 7 weeks of treatment,significantly reduced
same,"Assessment of lid margin, Lid Swelling","[1]; follow-up after 7 weeks of treatment, assessed for each eye separately, baseline 30",20
same,"Assessment of lid margin, Teleangiectasia","[1]; follow-up after 7 weeks of treatment, assessed for each eye separately, baseline 74",49
same,"Assessment of lid margin, Plugging","[1]; follow-up after 7 weeks of treatment, assessed for each eye separately, baseline 90",59
same,Severity of anterior blepharitis after treatment,anterior blepharitis; [2],decreased for all patients
same,"Anterior blepharitis shift table, changes from baseline for both eyes","anterior blepharitis; baseline +++, follow-up +++",0 eyes
same,"Anterior blepharitis shift table, changes from baseline for both eyes","anterior blepharitis; baseline +++, follow-up ++",0 eyes
same,"Anterior blepharitis shift table, changes from baseline for both eyes","anterior blepharitis; baseline +++, follow-up +",0 eyes
same,"Anterior blepharitis shift table, changes from baseline for both eyes","anterior blepharitis; baseline +++, follow-up none",0 eyes
same,"Anterior blepharitis shift table, changes from baseline for both eyes","anterior blepharitis; baseline ++, follow-up +++",0 eyes
same,"Anterior blepharitis shift table, changes from baseline for both eyes","anterior blepharitis; baseline ++, follow-up ++",4 eyes
same,"Anterior blepharitis shift table, changes from baseline for both eyes","anterior blepharitis; baseline ++, follow-up +",7 eyes
same,"Anterior blepharitis shift table, changes from baseline for both eyes","anterior blepharitis; baseline ++, follow-up none",4 eyes
same,"Anterior blepharitis shift table, changes from baseline for both eyes","anterior blepharitis; baseline +, follow-up +++",0 eyes
same,"Anterior blepharitis shift table, changes from baseline for both eyes","anterior blepharitis; baseline +, follow-up ++",1 eyes
same,"Anterior blepharitis shift table, changes from baseline for both eyes","anterior blepharitis; baseline +, follow-up +",20 eyes
same,"Anterior blepharitis shift table, changes from baseline for both eyes","anterior blepharitis; baseline +, follow-up none",38 eyes
same,"Anterior blepharitis shift table, changes from baseline for both eyes","anterior blepharitis; baseline none, follow-up +++",0 eyes
same,"Anterior blepharitis shift table, changes from baseline for both eyes","anterior blepharitis; baseline none, follow-up ++",2 eyes
same,"Anterior blepharitis shift table, changes from baseline for both eyes","anterior blepharitis; baseline none, follow-up +",15 eyes
same,"Anterior blepharitis shift table, changes from baseline for both eyes","anterior blepharitis; baseline none, follow-up none",31 eyes
same,"Assessment of anterior blepharitis, grade +++","anterior blepharitis; follow-up after 7 weeks of treatment, 122 eyes from 61 patients, baseline 0",0 eyes
same,"Assessment of anterior blepharitis, grade ++","anterior blepharitis; follow-up after 7 weeks of treatment, 122 eyes from 61 patients, baseline 15",7 eyes
same,"Assessment of anterior blepharitis, grade none","anterior blepharitis; follow-up after 7 weeks of treatment, 122 eyes from 61 patients, baseline 48",73 eyes
same,"Assessment of anterior blepharitis, grade +","anterior blepharitis; follow-up after 7 weeks of treatment, 122 eyes from 61 patients, baseline 59",42 eyes
